From ChEMBL document CHEMBL1201862, “PubChem BioAssay data set” (2004)
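Following 48 hours of exposure in 96-well plates, responses at five concentrations were used to interpolate endpoints linearly. Abbreviation: GI50, concentration required for 50% inhibition of growth.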 The source made the active and inactive calls. Rule as the data show it: active = GI50 up to about 1.1 µM and inactive = higher.

Tests used:
Test in all cases: NCI tumour cell line growth inhibition, 48 h
[1] = test system: 786-0
[2] = test system: A498
[3] = test system: A549
[4] = test system: ACHN
[5] = test system: BT-549
[6] = test system: CAKI-1
[7] = test system: CCRF-CEM
[8] = test system: COLO 205
[9] = test system: DU-145
[10] = test system: EKVX
[11] = test system: HCC 2998
[12] = test system: HCT-116
[13] = test system: HCT-15
[14] = test system: HL-60
[15] = test system: HOP-62
[16] = test system: HOP-92
[17] = test system: HT-29
[18] = test system: Hs-578T
[19] = test system: IGROV-1
[20] = test system: K562
[21] = test system: KM12
[22] = test system: LOX IMVI
[23] = test system: M14
[24] = test system: MCF7
[25] = test system: MDA-MB-231
[26] = test system: MDA-MB-435
[27] = test system: MDA-N
[28] = test system: MOLT-4
[29] = test system: Malme-3M
[30] = test system: NCI-H226
[31] = test system: NCI-H23
[32] = test system: NCI-H460
[33] = test system: NCI-H522
[34] = test system: NCI/ADR-RES
[35] = test system: OVCAR-3
[36] = test system: OVCAR-4
[37] = test system: OVCAR-5
[38] = test system: OVCAR-8
[39] = test system: PC-3
[40] = test system: RPMI-8226
[41] = test system: RXF 393
[42] = test system: SF-268
[43] = test system: SF-295
[44] = test system: SF-539
[45] = test system: SK-MEL-28
[46] = test system: SK-MEL-2
[47] = test system: SK-MEL-5
[48] = test system: SK-OV-3
[49] = test system: SN12C
[50] = test system: SNB-19
[51] = test system: SNB-75
[52] = test system: SR
[53] = test system: SW-620
[54] = test system: T47D
[55] = test system: TK-10
[56] = test system: U-251
[57] = test system: UACC-257
[58] = test system: UACC-62
[59] = test system: UO-31

SMILES: C=CCC1(O)c2ccccc2C(=O)c2c(O)ccc(O)c21 (stereo not drawn)
- GI50 [1]: 11.7 µM (inactive)
- GI50 [2]: 4.36 µM (inactive)
- GI50 [3]: 7.55 µM (inactive)
- GI50 [4]: 13.7 µM (inactive)
- GI50 [5]: 6.03 µM (inactive)
- GI50 [6]: 15.5 µM (inactive)
- GI50 [7]: 11.6 µM (inactive)
- GI50 [8]: 13.3 µM (inactive)
- GI50 [9]: 9.95 µM (inactive)
- GI50 [10]: 11.4 µM (inactive)
- GI50 [11]: 3.94 µM (inactive)
- GI50 [12]: 5.42 µM (inactive)
- GI50 [13]: 3.61 µM
- GI50 [14]: 3.06 µM (inactive)
- GI50 [15]: 12.4 µM (inactive)
- GI50 [16]: 12.9 µM (inactive)
- GI50 [17]: 7.28 µM (inactive)
- GI50 [18]: 4.24 µM (inactive)
- GI50 [19]: 5.98 µM (inactive)
- GI50 [20]: 11.1 µM (inactive)
- GI50 [21]: 3.94 µM (inactive)
- GI50 [22]: 9.66 µM (inactive)
- GI50 [23]: 5.01 µM (inactive)
- GI50 [24]: 4.11 µM (inactive)
- GI50 [25]: 6.15 µM (inactive)
- GI50 [26]: 1.8 µM (inactive)
- GI50 [27]: 2.12 µM (inactive)
- GI50 [28]: 1.93 µM (inactive)
- GI50 [29]: 3.4 µM (inactive)
- GI50 [30]: 7.03 µM (inactive)
- GI50 [31]: 10.7 µM (inactive)
- GI50 [32]: 3.52 µM (inactive)
- GI50 [33]: 2.62 µM (inactive)
- GI50 [34]: 2.12 µM (inactive)
- GI50 [35]: 5.65 µM (inactive)
- GI50 [36]: 11.1 µM (inactive)
- GI50 [37]: 17.2 µM (inactive)
- GI50 [38]: 12.4 µM (inactive)
- GI50 [39]: 8.2 µM (inactive)
- GI50 [40]: > 23.8 µM (inactive)
- GI50 [41]: 4.12 µM (inactive)
- GI50 [42]: 10.5 µM (inactive)
- GI50 [43]: 5.07 µM (inactive)
- GI50 [44]: 7.93 µM (inactive)
- GI50 [45]: 8.28 µM (inactive)
- GI50 [46]: 2.68 µM (inactive)
- GI50 [47]: 8.2 µM (inactive)
- GI50 [48]: 10.4 µM (inactive)
- GI50 [49]: 11.6 µM (inactive)
- GI50 [50]: 6.5 µM (inactive)
- GI50 [51]: 3.82 µM (inactive)
- GI50 [52]: 5.48 µM (inactive)
- GI50 [53]: 5.79 µM (inactive)
- GI50 [54]: 7.74 µM (inactive)
- GI50 [55]: 14.6 µM (inactive)
- GI50 [56]: 3.97 µM (inactive)
- GI50 [57]: 5.3 µM (inactive)
- GI50 [58]: 4.01 µM (inactive)
- GI50 [59]: 16.8 µM (inactive)

SMILES: COC(=O)/C(C#N)=C(/NCc1ccccc1)Nc1ccccc1
- GI50 [1]: 92.5 µM (inactive)
- GI50 [2]: > 100 µM (inactive)
- GI50 [3]: 45.1 µM (inactive)
- GI50 [4]: > 100 µM (inactive)
- GI50 [5]: > 100 µM (inactive)
- GI50 [6]: > 100 µM (inactive)
- GI50 [8]: 73.1 µM (inactive)
- GI50 [9]: > 100 µM (inactive)
- GI50 [10]: 50.9 µM (inactive)
- GI50 [11]: > 100 µM (inactive)
- GI50 [12]: 63 µM (inactive)
- GI50 [13]: 83.2 µM
- GI50 [14]: 27.8 µM (inactive)
- GI50 [15]: > 100 µM (inactive)
- GI50 [16]: 81.7 µM (inactive)
- GI50 [17]: 87.7 µM (inactive)
- GI50 [18]: 68.5 µM (inactive)
- GI50 [19]: > 100 µM (inactive)
- GI50 [20]: 46.1 µM (inactive)
- GI50 [22]: 61.2 µM (inactive)
- GI50 [23]: 42.4 µM (inactive)
- GI50 [24]: > 100 µM (inactive)
- GI50 [25]: 69.7 µM (inactive)
- GI50 [26]: > 100 µM (inactive)
- GI50 [27]: 46.9 µM (inactive)
- GI50 [28]: 30.1 µM (inactive)
- GI50 [29]: > 100 µM (inactive)
- GI50 [30]: > 100 µM (inactive)
- GI50 [31]: > 100 µM (inactive)
- GI50 [32]: 77.4 µM (inactive)
- GI50 [33]: 55.7 µM (inactive)
- GI50 [34]: 51.1 µM (inactive)
- GI50 [35]: 72.3 µM (inactive)
- GI50 [36]: 91 µM (inactive)
- GI50 [37]: > 100 µM (inactive)
- GI50 [38]: > 100 µM (inactive)
- GI50 [39]: 46 µM (inactive)
- GI50 [40]: 48.9 µM (inactive)
- GI50 [41]: > 100 µM (inactive)
- GI50 [42]: > 100 µM (inactive)
- GI50 [43]: 46.1 µM (inactive)
- GI50 [44]: > 100 µM (inactive)
- GI50 [45]: > 100 µM (inactive)
- GI50 [46]: > 100 µM (inactive)
- GI50 [47]: 64 µM (inactive)
- GI50 [48]: > 100 µM (inactive)
- GI50 [49]: > 100 µM (inactive)
- GI50 [50]: > 100 µM (inactive)
- GI50 [51]: 37.3 µM (inactive)
- GI50 [52]: 53.8 µM (inactive)
- GI50 [53]: > 100 µM (inactive)
- GI50 [54]: 79.3 µM (inactive)
- GI50 [55]: > 100 µM (inactive)
- GI50 [56]: > 100 µM (inactive)
- GI50 [57]: 82.8 µM (inactive)
- GI50 [59]: 37.6 µM (inactive)

SMILES: C=C=C(CC1CCCCC1=O)S(=O)(=O)c1ccccc1 (stereo not drawn)
- GI50 [1]: 4.2 µM (inactive)
- GI50 [2]: > 10 µM (inactive)
- GI50 [3]: > 10 µM (inactive)
- GI50 [4]: > 10 µM (inactive)
- GI50 [5]: > 10 µM (inactive)
- GI50 [6]: > 10 µM (inactive)
- GI50 [7]: 2.16 µM (inactive)
- GI50 [8]: > 10 µM (inactive)
- GI50 [9]: > 7.13 µM (inactive)
- GI50 [10]: > 10 µM (inactive)
- GI50 [11]: > 8.71 µM (inactive)
- GI50 [12]: 2.65 µM (inactive)
- GI50 [13]: 4.52 µM
- GI50 [14]: 1.52 µM (inactive)
- GI50 [15]: > 10 µM (inactive)
- GI50 [16]: > 10 µM (inactive)
- GI50 [17]: > 10 µM (inactive)
- GI50 [18]: > 10 µM (inactive)
- GI50 [19]: > 10 µM (inactive)
- GI50 [20]: 1.69 µM (inactive)
- GI50 [22]: > 4.78 µM (inactive)
- GI50 [23]: 3.12 µM (inactive)
- GI50 [24]: 3.23 µM (inactive)
- GI50 [25]: > 10 µM (inactive)
- GI50 [26]: > 7.23 µM (inactive)
- GI50 [27]: > 7.13 µM (inactive)
- GI50 [28]: 0.0489 µM (active)
- GI50 [29]: > 10 µM (inactive)
- GI50 [30]: > 10 µM (inactive)
- GI50 [31]: 5.13 µM (inactive)
- GI50 [32]: > 10 µM (inactive)
- GI50 [33]: 0.245 µM (active)
- GI50 [34]: > 10 µM (inactive)
- GI50 [35]: > 10 µM (inactive)
- GI50 [36]: > 10 µM (inactive)
- GI50 [37]: > 10 µM (inactive)
- GI50 [38]: > 9.46 µM (inactive)
- GI50 [39]: > 10 µM (inactive)
- GI50 [40]: 1.04 µM (active)
- GI50 [41]: > 9.62 µM (inactive)
- GI50 [42]: > 10 µM (inactive)
- GI50 [43]: > 10 µM (inactive)
- GI50 [44]: > 10 µM (inactive)
- GI50 [45]: > 10 µM (inactive)
- GI50 [46]: > 10 µM (inactive)
- GI50 [47]: > 4.8 µM (inactive)
- GI50 [48]: > 10 µM (inactive)
- GI50 [49]: 7.41 µM (inactive)
- GI50 [50]: > 10 µM (inactive)
- GI50 [51]: > 6.04 µM (inactive)
- GI50 [52]: 2.41 µM (inactive)
- GI50 [53]: 2.86 µM (inactive)
- GI50 [54]: > 10 µM (inactive)
- GI50 [55]: > 10 µM (inactive)
- GI50 [56]: > 10 µM (inactive)
- GI50 [57]: > 10 µM (inactive)
- GI50 [58]: > 5.12 µM (inactive)
- GI50 [59]: > 10 µM (inactive)
